# Source: publication PMC7355972, “Flavonoids in Decorticated Sorghum Grains Exert Antioxidant, Antidiabetic and Antiobesity Activities” (Molecules, 2020)
# Assays:
# [1] = ABTS radical scavenging activity; conditions: soluble (70% ethanol) extracts; 734 nm
# Protocol: The ABTS radical scavenging assay described by Ofosu et al. was used. ABTS^+ stock solution was prepared by reacting equal volumes of 7 mM ABTS solution with 2.45 mM potassium persulfate solution in the dark at room temperature for 16 h. Using ethanol, the ABTS+ stock solution was diluted to obtain an absorbance of approximately 0.70 at 734 nm. Appropriately, 80 μL sample extracts of various concentrations were added to 1 mL freshly prepared ABTS+ radical solution, and the absorbance was read at 734 nm.
# [2] = DPPH radical scavenging activity; conditions: soluble (70% ethanol) extracts; 30 min, 517 nm
# Protocol: The method previously described by Ofosu et al. was used to measure DPPH radical scavenging by ethanol extracts using a 24-well microplate reader. Briefly, 200 μL sample extracts of various concentrations were added to 2 mL freshly made DPPH radical solution (100 μM). After 30 min incubation at room temperature, absorbance was read at 517 nm.
# [3] = test system: advanced glycation end-products (AGEs) formation; assay: Inhibition of protein glycation (BSA/D-glucose, fluorescent AGEs); conditions: BSA + D-glucose, 37 °C for a week
# Protocol: The procedure by Sekhon-Loodu and Rupasinghe was adapted with slight modification. Bovine serum albumin (BSA), D-glucose and aminoguanidine were dissolved in 0.2 M phosphate buffer saline (pH 7.4) containing sodium azide (0.02% w/v). Equal volumes containing BSA (5.0 mg/mL) and D-glucose (36 mg/mL) and the negative control or the test samples or aminoguanidine at different concentrations (0.01, 0.02, 0.04, 0.05, 0.1, 0.2, 0.5 and 1.0 mg/mL) were added to reach a final volume of 1.0 mL. Aminoguanidine, a known AGE formation inhibitor, was used as the positive control. The mixtures in Eppendorf tubes were incubated in triplicate at 37 °C for a week. Fluorescent AGEs were measured using a microplate reader at 340 nm excitation and 420 nm emission wavelengths. Experiments were conducted in triplicates. The percentage of the AGE inhibition was calculated as shown below:(3) Inhibition (%)=[1−(Fluorescent of the test/Fluorescent of control)]×100
# The results were expressed in terms of IC50 representing the concentration of test extracts required to cause the inhibition of AGE formation by 50%.
smiles,measurement,setting,value
"Cc1c(C)c2c(c(C)c1O)CCC(C)(C(=O)O)O2 (stereo not drawn) [Trolox, 6-hydroxy-2,5,7,8-tetramethylchromane-2-carboxylic acid]",ABTS radical scavenging activity IC50,[1],74.60 ± 1.45 µg/mL
same,DPPH radical scavenging activity IC50,[2],48.7 ± 2.19 µg/mL
N=C(N)NN [aminoguanidine],AGEs formation inhibitory activity IC50,[3],52.30 µg/mL
